This assay can be described thus: Binding affinity to protein phosphatase, calcineurin (CN) was determined.
Usually Kd stands for a measure of binding affinity in units of concentration. As for `CCCC1C(=O)CC[C@@H](C)[C@@H](CCc2cccnc2)OC(=O)[C@@H]2CCCN(C2)C(=O)C(=O)CSCC[C@@H](OC)C[C@@H](C)CC(=O)N1C` (stereo partly drawn) [(8S,10R,18R,19R,22R)-8-Methoxy-10,13,18-trimethyl-14-propyl-19-(2-pyridin-3-yl-ethyl)-20-oxa-5-thia-1,13-diaza-bicyclo[20.3.1]hexacosane-2,3,12,15,21-pentaone], the dissociation constant (Kd) was over 1000 nM.
Regarding `C=CC[C@@H]1/C=C(\C)C[C@H](C)C[C@H](OC)[C@@H](O)[C@@H](OC)C[C@@H](C)CC(=O)C(=O)N2CCCC[C@H]2C(=O)O[C@H](/C(C)=C/[C@@H]2CC[C@@H](O)[C@H](OC)C2)[C@H](C)[C@@H](O)CC1=O` [18-(E)-allyl-11,21-Dihydroxy-23-[2-((R)-4-hydroxy-3-methoxy-cyclohexyl)-1-methyl-vinyl]-10,12-dimethoxy-8,14,16,22-pentamethyl-1,3,4,7,8,9,10,11,12,13,14,15,18,20,21,22,23,25a-octadecahydro-2H-24-oxa-4a-aza-benzocyclotricosene-5,6,19,25-tetraone], the Kd worked out at 350 nM.
For `CCCC1C(=O)CC[C@@H](C)[C@@H](CCc2cccnc2)OC(=O)[C@@H]2CCCN(C2)C(=O)C(O)CC[S+]([O-])CC[C@@H](OC)C[C@@H](C)CC(=O)N1C` (stereo partly drawn) [(9S,11R,19R,20R,23R)-3-Hydroxy-9-methoxy-11,14,19-trimethyl-6-oxo-15-propyl-20-(2-pyridin-3-yl-ethyl)-21-oxa-6lambda*4*-thia-1,14-diaza-bicyclo[21.3.1]heptacosane-2,13,16,22-tetraone], the Kd is over 1000 nM.
Regarding `C=CC[C@@H]1/C=C(\C)C[C@H](C)C[C@H](OC)[C@@H](O)[C@@H](OC)C[C@@H](C)c2ncoc2C(=O)N2CCCC[C@H]2C(=O)O[C@H](/C(C)=C/[C@@H]2CC[C@@H](O)[C@H](OC)C2)[C@H](C)C(O)CC1=O` (stereo partly drawn) [(E)-18-Allyl-11,21-dihydroxy-23-[(E)-2-((R)-4-hydroxy-3-methoxy-cyclohexyl)-1-methyl-vinyl]-10,12-dimethoxy-8,14,16,22-tetramethyl-4,24-dioxa-1,6-diaza-tricyclo[24.4.0.0*3,7*]triaconta-3(7),5,16-triene-2,19,25-], the Kd stood at 300 nM.
As for `C=CC[C@@H]1/C=C(\C)C[C@H](C)C[C@H](OC)[C@H]2O[C@@](O)(C(=O)C(=O)N3CCCC[C@H]3C(=O)O[C@H](/C(C)=C/[C@@H]3CC[C@@H](O)[C@H](OC)C3)[C@H](C)[C@@H](O)CC1=O)[C@H](C)C[C@@H]2OC`, the dissociation constant Kd amounted to 20 nM.
`CCC(C)C1C(=O)CC[C@@H](C)[C@@H](CCc2cccnc2)OC(=O)[C@@H]2CCCN(C2)C(=O)C(=O)CCSCC[C@@H](OC)C[C@@H](C)CC(=O)N1C` (stereo partly drawn) [(9S,11R,19R,20R,23R)-15-sec-Butyl-9-methoxy-11,14,19-trimethyl-20-(2-pyridin-3-yl-ethyl)-21-oxa-6-thia-1,14-diaza-bicyclo[21.3.1]heptacosane-2,3,13,16,22-pentaone]: the Kd is over 1000 nM.

For the origin of these results see BindingDB's records for doi:10.1016/0960-894X(95)00404-H (1995).
